Source: patent US6566361B2, “Azapirone pain treatment” (priority 1999, dated 2003)

Columns and labels:
albino rats [1] = test: Preclinical model of chronic pain (rat formalin test, phase II flinches); type: in vivo; conditions: single ip delivery: morphine 4 mg/kg, buspirone 3 mg/kg, acetaminophen 300 mg/kg
Experimental: To assess responses to a chronic stimulus (subcutaneous formalin injection), animals are first placed in clear observation boxes for a 30 min acclimation period prior to testing. Animals are subsequently removed and the dorsum of one hindpaw is injected s.c. with 50 microliters of 2.5% formalin. […] The total number of flinches is computer scored during the chronic phase (10-90 min after formalin) using a commercially available device (George Ozaki, Automated Nocicpetion Analyzer, Department of Anesthesiology, University of California, San Diego; La Jolla, Calif.) which automates the manual procedure described previously by Wheeler-Aceto et al. (Pain 40:229-238, 1990). All drugs are delivered at 30 min prior to formalin injection by the intraperitoneal (i.p.) route in a volume of 2 ml/kg. […] For acetaminophen (Sigma, A7085) the vehicle was 40% polyethylene glycol 400 (PEG-400), 10% EtOH, 15% Tween 80, and 35% deionized H2O (PETW). Acetaminophen was disolved sequentially in two parts: 1) first into a solution of 80% PEG 400+20% EtOH, and 2) then slowly added to it was an equal volume of 30% Tween 80+70% deionized H2O (sonicated as needed). Each animal received two injections at time zero. Specifically, animals were tested in one of the following 5 treatment conditions (abbreviations used in figures are shown under ‘Key” below): […]

albino rats [2] = test: Rat hindpaw withdrawal (thermal escape) test for analgesia (acute pain); type: in vivo; conditions: for Hindpaw thermal escape latency from 30 min to 120 min: ipsapirone 20 mg/kg ip, acetaminophen 300 mg/kg ip, or both coadministered, vs vehicle; for Thermal escape latencies vs vehicle, single administration: tandospirone 5 mg/kg ip alone, acetaminophen 300 mg/kg ip alone
Text: To assess the thermally evoked paw-withdrawal response, a commercially available device was used. Specifics of device construction and operation have been published previously (Dirig D M, Salami A, Rathbun M L, Ozaki G T, Yaksh T L. Characterization of variables defining hindpaw withdrawal latency evoked by radiant thermal stimuli. J Neurosci Methods. Oct. 3, 1997; 76(2):183-91). This device is comprised of a glass surface on which the rats were placed individually in Plexiglas cubicles (9×22×25 cm). The surface is maintained at 30° C. by a feedback-controlled, under-glass, forced-air heating system. The thermal nociceptive stimulus originates from a projection bulb below the glass that can be manipulated in a two-dimensional axis on ball bearing slides. This apparatus allows the stimulus to be delivered separately to each hind paw with the aid of an angled mirror mounted on the stimulus source. A timer is actuated with the light source, and escape latency is defined as the time between stimulus onset and the display of a brisk paw withdrawal (detected by photodiode motion sensors that stops the timer and terminates the stimulus; cut-off time for a non-response is 20 sec which triggers automatic termination of the stimulus). In the present study, animals are placed in test boxes for 30 min acclimation and then baseline escape latency is assessed separately for each hindpaw (left and right) at −15 min. All drugs are delivered at 0 min by the intraperitoneal (i.p.) route in a volume of 3 ml/kg. […] For acetaminophen (Sigma, A7085) the vehicle was 40% polyethylene glycol 400 (PEG-400), 10% EtOH, 15% Tween 80, and 35% deionized H2O (PETW). Acetaminophen was disolved sequentially in two parts: 1) first into a solution of 80% PEG 400+20% EtOH, and 2) then slowly added to it was an equal volume of 30% Tween 80+70% deionized H2O (sonicated as needed). Other azapirone vehicles were Gepirone (saline), ipsapirone (deionized H2O), and tandospirone (DMA+PETW), DMA=5% dimethylacetamide. Each animal received two injections at time zero. Specifically, animals were tested in one of the following 10 treatment conditions (abbreviations used in figures are shown under ‘Key” below):
Following drug administration, thermal escape latencies are measured at regular intervals (e.g., 15, 30, 60, 90 and 120 min, mean of both paws is used for statistical analysis).

rats = test: Preclinical model of neuropathic pain (Chung spinal nerve L5/L6 ligation, von Frey test); type: in vivo, rat; conditions: buspirone 3 mg/kg ip; acetaminophen 200 mg/kg ip; or both coadministered
Text: J Neurosci Methods. […] For acetaminophen (Sigma, A7085) the vehicle was 40% polyethylene glycol 400 (PEG-400), 10% EtOH, 15% Tween 80, and 35% deionized H2O (PETW). Acetaminophen was disolved sequentially in two parts: 1) first into a solution of 80% PEG 400+20% EtOH, and 2) then slowly added to it was an equal volume of 30% Tween 80+70% deionized H2O (sonicated as needed). Each animal received two injections at time zero.

[3] = Rat plasma concentrations of buspirone and APAP over time; type: in vivo
Text: It also has agonistic action at presynaptic D2 dopaminergic receptors. Acetaminophen is believed to act by elevating the pain threshold in patients.

mouse = test: Mouse hot plate test (Eddy et al.); type: in vivo; conditions: buspirone to acetaminophen weight ratios of 1:3, 1:10, and 1:30
[4] = in vivo; cited from earlier work
[5] = acute high doses; cited from earlier work
[6] = in vivo; cited from earlier work; remark: listed apart in the source

Row | Compound | Formalin-induced flinches relative to vehicle (albino rats [1]) | Hindpaw thermal escape latency from 30 min to 120 min (albino rats [2]) | Thermal escape latencies vs vehicle, single administration (albino rats [2]) | von Frey thresholds, injured side (neuropathic pain responses) (rats) | further results
1 | CN1CC[C@]23c4c5ccc(O)c4O[C@H]2[C@@H](O)C=C[C@H]3[C@H]1C5 [morphine] | significantly suppressed |  |  |  | 
2 | CC(=O)Nc1ccc(O)cc1 [acetaminophen] | significantly suppressed | a comparably high level of analgesia was not consistently attached throughout this same time period | did not differ from vehicle until 90 min after injection | partial reversal toward normal at 30-120 min | Hindpaw thermal escape response, Area Under the Curve (AUC) from thermal escape latencies (sec) over 120 min post injection (albino rats [2]; acetaminophen 300 mg/kg ip, compared to vehicle): elevated significantly above vehicle; Plasma concentrations over time, alone vs in combination [3]: do not differ significantly whether given alone or in combination
3 | O=C1[C@@H]2[C@H]3CC[C@H](C3)[C@@H]2C(=O)N1CCCCN1CCN(c2ncccn2)CC1 [tandospirone] |  |  | did not differ from vehicle until 90 min after injection |  | 
4 | 8-[4-[4-(2-pyrimidinyl)1-piperazinyl]butyl-8-azaspiro(4,5)-decane-7,9-dione [buspirone] | significantly suppressed |  |  | not significantly different from vehicle | Potentiation of acetaminophen in hot plate test (mouse): demonstrated potentiation of acetaminophen; Type of analgesia produced [4]: non-opioid type of analgesia; Relief of neuropathic pain [5]: did not relieve neuropathic pain; Effect on xylazine-induced antinociception [6]: attenuate xylazine-induced antinociception
5 | O=C1c2ccccc2S(=O)(=O)N1CCCCN1CCN(c2ncccn2)CC1 [ipsapirone] |  | a comparably high level of analgesia was not consistently attached throughout this same time period |  |  | 
